Counter-ions that a name gives are not always drawn.
Experiments:
[1] = system: Creatinine Sensor; assay: Screen of biocides/antibiotics for compatibility with the Creatinine Sensor (Creatinine Sensor Slope loss); assay type: biochemical; set-up: key: “Fail” indicates the compound inhibited Creatinine Sensor Slope; “Pass” indicates there was no significant effect on Creatinine Sensor Slope
Excerpt: In one embodiment, a biocide candidate may be injected into, for example, one PCS-B bag after about one week of cartridge use life, and then any changes in sensor slopes over the next week or two, especially any increase in the rate of slope decrease, may be observed. During this time, aqueous solutions with high substrate concentrations may be tested to ensure that enzymes are still able to convert all substrate to products in the allotted time (e.g., about one minute).
In one embodiment, multiple cartridges assembled with, for example, PCS-B bags containing a candidate biocide may be tested for a prolonged period of time (e.g., 20-30 days) that corresponds to the useful cartridge lifespan (which may vary depending upon the cartridge type tested). In this case the cartridge starts the hydration process, which generally lasts about 50 minutes, with the biocide already in the solution bag (e.g., PCS-B). […] Over the course of 3 weeks, in addition to running aqueous controls that have established acceptance ranges, whole human blood may also be tested in order to simulate normal customer use.
A variety of candidate molecules were screened as described above to determine whether they were compatible with the Creatinine Sensor, i.e. whether there was a significant effect on Creatinine Sensor Slope.

[2] = system: ChemSTAT creatinine sensor (creatininase, creatinase and sarcosine oxidase); assay: Creatinine and creatine sensor slopes over time with biocide in Process Control Solution (PCS); assay type: biochemical; conditions: for Creatinine and creatine slopes over time after addition to PCS: 20 mg/L added to PCS-B after stable slopes for more than one week
Procedure: FIGS. 2A-2B show plots of creatinine and creatine slopes over time in the presence of either MIT or polymyxin B, respectively. […] Stable slopes were first established for more than one week before 300 mg/L MIT (methyl isothiazolinone) or 20 mg/L polymyxin B was added to the Process Control Solution (PCS) B (e.g., PCS-B).
The present disclosure discovered that Polymyxin B and Polymyxin E (aka, Colistin Sulfate) were compatible with a ChemSTAT creatinine sensor that utilized two hydrolase class enzymes (e.g., creatininase and creatinase) and sarcosine oxidase to measure creatinine. When included in Process Control Solutions (PCS) at a concentration sufficient to kill microbes (e.g., bacteria, in particular gram negative rods including various strains of Pseudomonas), the slope of the sensor remained high enough over 21 days to continually allow accurate measurement of creatinine in human blood and aqueous control solutions even at the upper end of the linear range where reduced enzyme activity could result in low recovery of substrate.
MIT is the most common biocide used in the blood gas industry for microbial contamination, and is known to be compatible with oxidase class enzymes such as glucose oxidase and lactate oxidase.
Importantly, the creatinine slope performed equivalently with colistin in PCS bags (see FIG. 3, left) to cartridges with PCS bags protected only with gentamicin (see FIG. 3, right). In this plot, no bacterial contamination was observed on control or test biocide PCS bags nor was there any evidence of enzyme inhibition and therefore performance is similar.

Compound	Pass/Fail (Creatinine Sensor Slope Loss) [1]	Inhibition/inactivation of creatininase, creatinase and sarcosine oxidase [2]	further results
Oc1ccccc1-c1ccccc1 [2-phenyl phenol]	Fail	–	–
Oc1cccc2cccnc12 [8-hydroxyquinoline]	Fail	–	–
NCC[C@H](O)C(=O)N[C@@H]1C[C@H](N)[C@@H](O[C@H]2O[C@H](CN)[C@@H](O)[C@H](O)[C@H]2O)[C@H](O)[C@H]1O[C@H]1O[C@H](CO)[C@@H](O)[C@H](N)[C@H]1O [Amikacin sulfate]	Pass	–	–
O=c1[nH]sc2ccccc12 [BIT, benisothiazolinone]	Fail	irreversibly inhibited	–
CC1(C)S[C@@H]2[C@H](NC(=O)C(C(=O)O)c3ccccc3)C(=O)N2C1C(=O)O (some centres unmarked) [Carbenicillin disodium]	Pass	–	–
CC(C)(O/N=C(\C(=O)N[C@@H]1C(=O)N2C(C(=O)[O-])=C(C[n+]3ccccc3)CS[C@H]12)c1csc(N)n1)C(=O)O [Ceftazidime]	Pass	–	–
Cn1sc(Cl)cc1=O [Cl-MIT, chlorinatedmethyl- isonthiazolinone]	Fail	irreversibly inhibited	–
CC1(C)NC(=O)NC1=O [Dantogard Plus, dimethylhydantoin]	Fail	irreversibly inhibited	–
CNC1C(O)[C@@H](O[C@H]2C(N)C[C@H](N)C(O[C@H]3OC(C(C)N)CCC3N)C2O)OC[C@]1(C)O (some centres unmarked) [Gentamicin sulfate]	Pass	–	Creatinine slope performance over time in PCS ([2]; full use life of three weeks): maintained sufficient creatinine slope
C[C@H]1COc2c(N3CCN(C)CC3)c(F)cc3c(=O)c(C(=O)O)cn1c23 [Levofloxacin]	Pass	–	–
Cn1sc2ccccc2c1=O [MBIT, methylbenzisothiazolinone]	Fail	irreversibly inhibited	–
CCn1cc(C(=O)O)c(=O)c2cc(F)c(N3CCNCC3)cc21 [Norfloxacin]	Fail	irreversibly inhibited	–
CCCCNC(=O)OCC#CI [Omacide IPBC, iodopropynylbutylcarbamate]	Fail	irreversibly inhibited	–
CCN1CCN(C(=O)N[C@@H](C(=O)N[C@@H]2C(=O)N3C(C(=O)O)C(C)(C)S[C@H]23)c2ccccc2)C(=O)C1=O (some centres unmarked) [Piperacillin]	Pass	–	–
CN[C@@H]1[C@H](O)[C@H](NC)[C@H]2O[C@@]3(O)C(=O)C[C@@H](C)O[C@H]3O[C@@H]2[C@H]1O [Spectinomycin]	Pass	–	–
COc1cc(Cc2cnc(N)nc2N)cc(OC)c1OC [Trimethoprim]	Fail	irreversibly inhibited	–
Polymyxin B	Pass	–	Creatinine and creatine slopes over time after addition to PCS [2]: no effect; Creatinine and creatine slopes over time after addition to PCS ([2]; listed as polymyxin B): does not causes a rapid decay; Compatibility with ChemSTAT creatinine sensor ([2]; in PCS at a concentration sufficient to kill microbes, slope over 21 days): compatible
Streptomycin	Pass	–	–
